Legend:
[1] = tested on: Diamond back moth; assay: insecticidal activity against diamond back moth, airbrush spray; format: in vivo; details: for control (test results against diamond back moth): mortality after 72 hrs
In short: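 Airbrush leaf-disc spray test: both faces of 2 cm cabbage discs received 0.5 ml of test solution at 0.7 kg/cm^2. Solutions were made in acetone:methanol (1:1) and brought to concentration with 0.1% Tween 80 in water. Ten second-instar larvae per disc, triplicates, were held at 25° C and 60˜70% R.H., with mortality recorded at 72 hrs.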

[2] = tested on: armyworm; assay: bioactivity test against armyworm, airbrush spray; format: in vivo; details: for control (test results against armyworm): mortality after 72 h
[3] = tested on: Green peach aphids (Myzus Persicae Sulzer); assay: bioactivity test against green peach aphid, airbrush foliar spray; format: in vivo; details: for Insecticidal activity against peach aphid (%): contrastive test; for control (test results against green peach aphid): death rate after 48 hrs
In short: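 Aphids (15-30 per cabbage leaf disc) on moist filter paper were airbrush-sprayed at 10 psi, 0.5 mL, with compound from acetone:methanol (1:1) diluted in water with 0.1% tween 80. Held at 25±1 C, 60±5% RH; survivors counted after 48 hrs to give death rates.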

[4] = tested on: carmine spider mite; assay: bioactivity test against carmine spider mite, airbrush spray; format: in vivo; details: for control against carmine spider mite: mortality after 72 hrs
In short: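 Broadbean seedlings infested with adult mites were sprayed with compound (acetone/methanol stock diluted in 0.1% Tween 80 water) by airbrush at 0.7 kg/cm^2, 0.5 ml. Three replicates were run. Mortality was scored after 72 hrs.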

[5] = tested on: corn rust; assay: protectant activity in vivo against corn rust
[6] = tested on: wheat powdery mildew; assay: protectant activity in vivo against wheat powdery mildew; details: for control effect against wheat powdery mildew (%): protectant activity
[7] = tested on: cucumber downy mildew; assay: protectant activity in vivo against cucumber downy mildew

In the case of `Cc1ncnc(NCCc2ccc(Oc3ccc(C#N)cc3F)cc2)c1Cl` [II-204], the “Insecticidal activity against diamond back moth (%)” value ([1]; 10 mg/L) is reported as 20%, the “Insecticidal activity against diamond back moth (%)” value ([1]; 100 mg/L) is reported as 100% and the “Insecticidal activity against diamond back moth (%)” value ([1]; 600 mg/L) is reported as 100%. For the same molecule, the “control (test results against diamond back moth)” value ([1]; 100 ppm) was 100%, the “control (test results against diamond back moth)” value ([1]; 600 ppm) was 100% and the “Insecticidal activity against armyworm (%)” value ([2]; 10 mg/L) was 47%. For the same molecule, the “Insecticidal activity against armyworm (%)” value ([2]; 100 mg/L) was 100%, the “Insecticidal activity against armyworm (%)” value ([2]; 600 mg/L) was 100% and the “control (test results against armyworm)” value ([2]; 100 ppm) was 100%. For the same molecule, the “control (test results against armyworm)” value ([2]; 600 ppm) was 100%, the “Insecticidal activity against peach aphid (%)” value ([3]; 1.25 mg/L) was 60% and the “Insecticidal activity against peach aphid (%)” value ([3]; 2.5 mg/L) was 97%. For the same molecule, the “Insecticidal activity against peach aphid (%)” value ([3]; 5 mg/L) was 100%, the “Insecticidal activity against peach aphid (%)” value ([3]; 10 mg/L) was 100% and the “Insecticidal activity against peach aphid (%)” value ([3]; 100 mg/L) was 100%. The “Insecticidal activity against peach aphid (%)” value ([3]; 600 mg/L) was 100%, the “control (test results against green peach aphid)” value ([3]; 5 ppm) was 100% and the “control (test results against green peach aphid)” value ([3]; 10 ppm) was 100%. The “control (test results against green peach aphid)” value ([3]; 100 ppm) was 100%, the “control (test results against green peach aphid)” value ([3]; 600 ppm) was 100% and the “Insecticidal activity against carmine spider mite (% )” value (from here on “Insecticidal activity … (% )”) ([4]; 2.5 mg/L) was 60%. The “Insecticidal activity … (% )” value ([4]; 5 mg/L) was 80%, the “Insecticidal activity … (% )” value ([4]; 10 mg/L, contrastive test) was 100% and the “Insecticidal activity … (% )” value ([4]; 100 mg/L, contrastive test) was 100%. The “Insecticidal activity … (% )” value ([4]; 600 mg/L, contrastive test) was 100%, the “control against carmine spider mite” value ([4]; 10 ppm) was 100% and the “control against carmine spider mite” value ([4]; 100 ppm) was 100%. The “control against carmine spider mite” value ([4]; 600 ppm) was 100%, the “protectant activity against corn rust in vivo” value ([5]; 25 ppm) was 100% and the “protectant activity against corn rust in vivo” value ([5]; 100 ppm) was 100%. The “protectant activity against corn rust in vivo” value ([5]; 400 ppm) was 100%, the “control effect against wheat powdery mildew (%)” value (shortened to “control effect … (%)”) ([6]; 6.25 mg/L) was 100% and the “control effect … (%)” value ([6]; 25 mg/L) was 100%. The “control effect … (%)” value ([6]; 100 mg/L) was 100%, the “control effect … (%)” value ([6]; 400 mg/L) was 100% and the “protectant activity against wheat powdery mildew in vivo” value ([6]; 6.25 ppm) was 100%. For the same molecule, the “protectant activity against wheat powdery mildew in vivo” value ([6]; 25 ppm) was 100%, the “protectant activity against wheat powdery mildew in vivo” value ([6]; 100 ppm) was 100% and the “protectant activity against wheat powdery mildew in vivo” value ([6]; 400 ppm) was 100%. For the same molecule, the “protectant activity against cucumber downy mildew in vivo” value ([7]; 25 ppm) was 100%, the “protectant activity against cucumber downy mildew in vivo” value ([7]; 50 ppm) was 100% and the “protectant activity against cucumber downy mildew in vivo” value ([7]; 100 ppm) was 100%. For the same molecule, the “protectant activity against cucumber downy mildew in vivo” value ([7]; 400 ppm) was 100%.

Reference: US9770026B2, “Substituted pyrimidine compound and uses thereof” (Shenyang Sinochem Agrochemicals R&D Co., Ltd., priority 2012, dated 2017)
